The test system of this experiment is H4 cells, PrP 5'UTR luciferase reporter translation. Nature of the experiment: prion protein stem-loop luciferase translation blockers – luminescence, dose response (AID 1994).

The structures appear in SMILES notation. Records with an inconclusive call do not appear. Calls of active or inactive are those of the source. The rule behind the calls is not given here.

The text below walks through data of PubChem BioAssay AID1994 (Broad Institute, 2009).

A word on the EC50: it is the midpoint of the concentration-response curve.

With `C=C(C=O)CC1CC(O)[C@]2(C)OC3CC4OC5C[C@]6(C)O[C@]7(C)CCC8OC9C[C@]%10(C)OC%11C(C)=CC(=O)OC%11CC%10OC9C[C@@H](C)C8OC7CC6O[C@]5(C)CC5OC5C4OC3CC2O1` (some centres not stated), the EC50 is 1580 nM. As to `C#CCOCCOCCOCCNc1nc(N2CCN(C(=O)CCCCCCCCCCNC(=O)[C@H](CO)n3cc(CCCSC)nn3)CC2)nc(N2CCN(C(=O)CCCCCCCCCCNC(=O)[C@H](CCCCN)n3cc(C[C@@H](C)CC)nn3)CC2)n1`, the EC50 was > 12000 nM (inactive).
